Reference: US4292317A, “1,4-Dihydro-quinoline-3-carboxylic acid derivatives, process for their preparation and compositions containing them” (Laboratorie Roger Bellon, priority 1977, dated 1981)
≈ marks a conversion by molar mass, not a printed value.

Key:
Staph. aureus 50,774 [1] = assay: Systemic infection in mice; assay type: in vivo; conditions: Staphylococcus aureus, po, 336 h
Method: (§1) The activity of the compounds according to the invention against systemic infections in mice, caused by Staphylococcus 50,774, Streptococcus pyogenes A 65, Pseudomonas aeruginosa No. 12 and Escherichia coli P 5101, has been studied.
(§2) The infections were set up by intraperitoneal injection of a suspension of the bacterial culture corresponding to the germ studied. The products were administered orally at the time of injection, and 6 hours later. […] Aureus and for 7 days for the other germs.
(§3) Oxolinic acid was used as the reference substance.

Escherichia coli P 5101 [2] = assay: Systemic infection in mice; assay type: in vivo; conditions: P5101, po, 168 h
Method: as §1, §2, §3

[3] = test system: Pseudomonas aeruginosa No. 12; assay: Systemic infection in mice; assay type: in vivo; conditions: NO.12, po, 168 h
Method: as §1, §2, §3

Strept. pyogenes A. 65 [4] = assay: Systemic infection in mice; assay type: in vivo; conditions: Streptococcus pyogenes, A.65, po, 168 h
Method: as §1, §2, §3

Pr. vulgaris 12-53 = assay: M.I.C. in vitro, nutrient agar dilution; assay type: cell-based; conditions: Proteus vulgaris, 1253, 18 h
In short: (§4)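 Agar dilution, medium pH 6.8 post-autoclave (120° C.); compound 0.05–100 μg/cm^3, factor-2 series. Inoculum: 10^-3 dilution of 18 h broth culture, multipoint inoculator. 37° C., 18 h. MIC = lowest conc. inhibiting growth.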

Pr. mirabilis Nig = assay: M.I.C. in vitro, nutrient agar dilution; assay type: cell-based; conditions: Proteus mirabilis, 18 h
In short: as §4

Staph. 9.144 = assay: M.I.C. in vitro, nutrient agar dilution; assay type: cell-based; conditions: 18 h
In short: as §4

Pr. morganii A.236 = assay: M.I.C. in vitro, nutrient agar dilution; assay type: cell-based; conditions: Morganella morganii, A.236, 18 h
In short: as §4

Esch. coli 54.127 O.M.S. = assay: M.I.C. in vitro, nutrient agar dilution; assay type: cell-based; conditions: Escherichia coli, 54.127O.M.S., 18 h
In short: as §4

Esch. coli 111 B4 = assay: M.I.C. in vitro, nutrient agar dilution; assay type: cell-based; conditions: Escherichia coli, 18 h; Table III; Esch. coli 111 B4
In short: as §4

S. enteritidis Danysz = assay: M.I.C. in vitro, nutrient agar dilution; assay type: cell-based; conditions: Salmonella enterica, ENTERITIDIS, 18 h
In short: as §4

Sh. sonnei I.P.S. = assay: M.I.C. in vitro, nutrient agar dilution; assay type: cell-based; conditions: Shigella sonnei, 18 h; Table III; Sh. sonnei I.P.S.; read-out: M.I.C.
In short: as §4

Arizona 6.211 = assay: M.I.C. in vitro, nutrient agar dilution; assay type: cell-based; conditions: 18 h
In short: as §4

Esch. coli 95 I.S.M. = assay: M.I.C. in vitro, nutrient agar dilution; assay type: cell-based; conditions: Escherichia coli, 95I.S.M., 18 h
In short: as §4

Bord. bronchis. 4.617 = assay: M.I.C. in vitro, nutrient agar dilution; assay type: cell-based; conditions: 18 h
In short: as §4

Staph. 209 P = assay: M.I.C. in vitro, nutrient agar dilution; assay type: cell-based; conditions: 18 h
In short: as §4

B. subtilis = assay: M.I.C. in vitro, nutrient agar dilution; assay type: cell-based; conditions: Bacillus subtilis, 18 h
In short: as §4

Klebs. pneum. 10.031 = assay: M.I.C. in vitro, nutrient agar dilution; assay type: cell-based; conditions: 18 h
In short: as §4

Strepto D.M. 19 = assay: M.I.C. in vitro, nutrient agar dilution; assay type: cell-based; conditions: 18 h
In short: as §4

S. oranienburg 1066 = assay: M.I.C. in vitro, nutrient agar dilution; assay type: cell-based; conditions: Salmonella enterica, 1066, 18 h
In short: as §4

Serratia = assay: M.I.C. in vitro, nutrient agar dilution; assay type: cell-based; conditions: 18 h
In short: as §4

Ps. aeruginosa A.22 = assay: M.I.C. in vitro, nutrient agar dilution; assay type: cell-based; conditions: Pseudomonas aeruginosa, A.22, 18 h
In short: as §4

Providentia 0223 = assay: M.I.C. in vitro, nutrient agar dilution; assay type: cell-based; conditions: 18 h
In short: as §4

Ps. aeruginosa 72.345 = assay: M.I.C. in vitro, nutrient agar dilution; assay type: cell-based; conditions: Pseudomonas aeruginosa, 72.345, 18 h
In short: as §4

Salm. typhi 0901 = assay: microbe, parasite or virus in culture; assay type: cell-based; conditions: Salmonella enterica, 18 h; Table III; Salm. typhi 0901
In short: as §4

Staph. aureus 50,774 [5] = assay: M.I.C. for germ used in experimental infection; assay type: cell-based; conditions: Staphylococcus aureus, 18 h
Method: (§5) After sterilisation at 120° C., the pH was 6.8.
(§6) The minimum inhibitory concentrations (M.I.C.) were determined by dilution of the test compounds in this mixture, the concentration ranging from 0.05 to 100 μg/cm^3 in a geometric progression with a factor of 2.
(§7) The inoculation of the dishes was carried out by means of a multiple inoculator with 10^-3 dilutions of 18 hour old broth cultures.
(§8) The dishes were placed in an oven at 37° C. and the readings were taken afer an incubation time of 18 hours. The M.I.C. was taken as the lowest concentration which inhibited a culture.

Escherichia coli P 5101 [6] = assay: M.I.C. for germ used in experimental infection; assay type: cell-based; conditions: P5101, 18 h
Method: as §5, §6, §7, §8

[7] = test system: Pseudomonas aeruginosa No. 12; assay: M.I.C. for germ used in experimental infection; assay type: cell-based; conditions: NO.12, 18 h
Method: as §5, §6, §7, §8

Strept. pyogenes A. 65 [8] = assay: M.I.C. for germ used in experimental infection; assay type: cell-based; conditions: Streptococcus pyogenes, A.65, 18 h
Method: as §5, §6, §7, §8

in vivo = conditions: mouse, mice

SMILES: CCn1cc(C(=O)O)c(=O)c2cc3c(cc21)OCO3 [Oxolinic acid, oxolinic acid, reference compound]
- ED50 (Staph. aureus 50,774 [1]): 53.2 mg/kg
- ED90 (Staph. aureus 50,774 [1]): 111 mg/kg
- ED50 (Escherichia coli P 5101 [2]): 17 mg/kg
- ED90 (Escherichia coli P 5101 [2]): 45.1 mg/kg
- ED50 [3]: 70.1 mg/kg
- ED90 [3]: 142 mg/kg
- ED50 (Strept. pyogenes A. 65 [4]): > 100 mg/kg
- ED90 (Strept. pyogenes A. 65 [4]): > 100 mg/kg
- MIC (Pr. vulgaris 12-53): 0.05 µg/mL (≈ 0.191 µM)
- MIC (Pr. mirabilis Nig): 0.4 µg/mL (≈ 1.53 µM)
- MIC (Staph. 9.144): 0.8 µg/mL (≈ 3.06 µM)
- MIC (Pr. morganii A.236): 0.1 µg/mL (≈ 0.383 µM)
- MIC (Esch. coli 54.127 O.M.S.): 0.4 µg/mL (≈ 1.53 µM)
- MIC (Esch. coli 111 B4): 0.4 µg/mL (≈ 1.53 µM)
- MIC (S. enteritidis Danysz): 0.8 µg/mL (≈ 3.06 µM)
- MIC (Sh. sonnei I.P.S.): 0.2 µg/mL (≈ 0.766 µM)
- MIC (Arizona 6.211): 0.4 µg/mL (≈ 1.53 µM)
- MIC (Esch. coli 95 I.S.M.): 0.1 µg/mL (≈ 0.383 µM)
- MIC (Bord. bronchis. 4.617): 3.1 µg/mL (≈ 11.9 µM)
- MIC (Staph. 209 P): 0.8 µg/mL (≈ 3.06 µM)
- MIC (B. subtilis): 0.1 µg/mL (≈ 0.383 µM)
- MIC (Klebs. pneum. 10.031): 0.1 µg/mL (≈ 0.383 µM)
- MIC (Strepto D.M. 19): 25 µg/mL (≈ 95.7 µM)
- MIC (S. oranienburg 1066): 25 µg/mL (≈ 95.7 µM)
- MIC (Serratia): 0.8 µg/mL (≈ 3.06 µM)
- MIC (Ps. aeruginosa A.22): 12.5 µg/mL (≈ 47.9 µM)
- MIC (Providentia 0223): 25 µg/mL (≈ 95.7 µM)
- MIC (Ps. aeruginosa 72.345): 6.2 µg/mL (≈ 23.7 µM)
- MIC (Salm. typhi 0901): 0.4 µg/mL (≈ 1.53 µM)
- MIC (Staph. aureus 50,774 [5]): 1.56 µg/mL (≈ 5.97 µM)
- MIC (Escherichia coli P 5101 [6]): 0.2 µg/mL (≈ 0.766 µM)
- MIC [7]: 12.5 µg/mL (≈ 47.9 µM)
- MIC (Strept. pyogenes A. 65 [8]): 100 µg/mL (≈ 383 µM)
- LD50 (in vivo; iv): 177 mg/kg
- LD50 (in vivo; po): > 2000 mg/kg
